# Experimental data taken from patent publication US7846434B2, “Materials and methods for improved immunoglycoproteins” (Trubion Pharmaceuticals, Inc., priority 2006, dated 2010).
# “And” between values parts separate entries of the source, which are not always exact repeats. Identical values can stand only once.
# Tests used:
# CD16 (Fcγ RIII) = assay: Binding of SMIP bound on WIL2-S cells to soluble FcγR-MIg fusion (CD16), flow cytometry
# Method: The assays were carried out as follows. […] The cells were then incubated with the desired FcγR-MIg fusion in the same diluent at a concentration of 1 μg/ml on ice for 45 minutes.
# The complexes (WIL2-S cells/SMIP/FcγR-MIg) were then incubated with PE conjugated AffiniPure F(Ab′)2 Goat Anti-Mouse IgG [Jackson Immunoresearch] (a mouse Fc-specific antibody with minimal cross reactivity with human Fc) at a 1:100 dilution. The cells were analyzed by one-color flow cytometry on a FACsCalibur using CellQuest software (Becton Dickinson).
# If TRU-016 supernatants from Example 2 were used in this assay instead of purified TRU-016 protein, the SMIP concentration in the supernatant was quantified by direct staining of WIL2-S cells with diluted supernatant along with a TRU-016 standard. TRU-016 was detected by staining with FITC conjugated F(Ab′)2 Goat Anti-Human (gamma) [Caltag H10101] at a 1:50 dilution.
# BJAB B cells = assay: ADCC, 51Cr-labeled BJAB B cells with human PBMC effectors; format: cell-based
# Method: To determine the ADCC activity of purified TRU-016, labeled BJAB B cells were used as targets and human peripheral blood mononuclear cells (PBMC) as effector cells. BJAB B cells (10^7 cells) were labeled with 500 μCi/mL ^51Cr sodium chromate for 2 hours at 37° C. in IMDM/10% FBS. PBMCs were isolated from heparinized, human whole blood by fractionation over Lymphocyte Separation Media (LSM, ICN Biomedical) gradients. Reagent samples were added to RPMI media with 10% FBS and serial dilutions of each reagent were prepared. The ^51Cr labeled BJAB were added at 2×10^4 cells/well. The PBMCs were then added at 5×10^5 cells/well for a final ratio of 25:1 effectors (PBMC):targets (BJAB). Reactions were set up in quadruplicate wells of a 96 well plate. Reactions were allowed to proceed for 6 hours at 37° C. in 5% CO2 prior to harvesting and counting. CPM released was measured on a Packard TopCounNXT from 50 μl dried culture supernatant. Percent specific killing was calculated by subtracting (cpm [mean of quadruplicate samples] of sample−cpm spontaneous release)/(cpm maximal release−cpm spontaneous release)×100, and data were plotted as % specific killing versus TRU-016 concentration.
# [1] = test system: CHO-K1 cells transfected with TRU-016; assay: Effect of castanospermine on CHO-K1 TRU-016 production, shake flasks; format: cell-based, Chinese hamster; conditions: for Average TRU-016 Produced (μg/mL) ± SD: duplicate flasks; for Viability at Harvest (%): harvest day 10, listed as CS
# Method: Prior to initiation of the experiments, CHO-K1 cells transfected with TRU-016 (CAS029f053) were grown in vented shake flasks in CD-CHO chemically-defined media (GIBCO-Invitrogen) supplemented with 25 uM methionine sulfoximine (MSX) at 37° C. and 5% carbon dioxide in a humidified incubator. Shaker speed was set at 125 RPM. A 400 mM stock concentration of castanospermine (Alexis Biochemicals) was prepared by dilution of the CS in sterile, distilled/deionized water (MediaTech) followed by filtration through a 13 mm Acrodisc® with a 0.2 μm HT Tuffryn membrane (Pall Corporation). Stock solution was aliquoted into sterile, O-ringed, 0.5 mL microcentrifuge tubes (Fisherbrand, Fisher Scientific) and frozen at −20° C. Approximately 1 hour prior to initiation of experiments, needed aliquots were thawed at room temperature and the contents of each vial mixed well by vortexing.
# For the experiment, cells in log phase growth were seeded in the above medium into a volume of 60 mL in 250 mL shaker flasks at a density of 220,000 cells/mL and CS added at the concentration to be tested. Final CS concentrations of 800 μM, 400 μM, 200 μM, 100 μM, 50 μM, 25 μM and 0 μM were each tested in duplicate flasks. All shake flasks were incubated on a shaker platform set at 125 RPM at 37° C. and 5% carbon dioxide in a humidified incubator. Cultures were monitored at least every other day for viable cell density and overall cell viability.
# Cultures were harvested on day 10 when overall cell viability was 49-62%. Cells and cellular debris were removed by centrifugation in a Sorvall Super T21 at 3000 rpm for 20 minutes after which the supernatant was sterile filtered through a Millipore Steriflip unit with a 0.22 μm Millipore Express Plus membrane and stored at 4° C. until purified.
smiles,measurement,setting,value
O[C@H]1[C@H](O)[C@@H](O)CN2CC[C@H](O)[C@H]12 [castanospermine],CD16 binding of Protein A-purified TRU-016 (mean fluorescence intensity),"CD16 (Fcγ RIII); CHO cells cultured with 0, 10, 25, 50, 100 or 200 μM castanospermine",dose-dependent increase
same,CD16 binding of TRU-015 purified protein (geometric mean fluorescence intensity),"CD16 (Fcγ RIII); low affinity allele, CHO cells cultured with 0, 2, 5, 10, 30 or 100 μg/mL castanospermine",dose-dependent increase
same,ADCC activity of TRU-016 purified protein (% specific killing),"BJAB B cells; 0, 10, 25, 50, 100 or 200 μM castanospermine in culture media",dose-dependent increase
same,ADCC activity of TRU-015 purified protein (% specific killing),"BJAB B cells; 0-100 μg/mL castanospermine in culture media, PBMC from high affinity (V/V158) and low affinity (F/F158) CD16 donors",dose-dependent increase
same,ADCC of TRU-016 purified protein (% specific killing),"BJAB B cells; culture media containing 200 μM DMJ, 10 μM kifenunsine or 200 μM castanospermine",improved
same,CS concentration at which the maximal suppressive effect on TRU-016 production was reached,[1]; CHO-K1,200 µM
same,Average ICA (10^6 cells * days/mL) ± SD,[1]; CS 25 μM,40.8 ± 0.4 10^6 cells * days/mL
same,Average Specific Productivity (pg/cell/day) ± SD,[1]; CS 25 μM,10.29 ± 0.18 pg/cell/day
same,Average TRU-016 Produced as a % of Control ± SD,[1]; CS 25 μM,96.7 ± 2.6%
same,Average TRU-016 Produced (μg/mL) ± SD,[1]; CS 25 μM,419.36 ± 11.1 µg/mL
same,Viability at Harvest (%),[1]; CS 25 μM,57.7% and 53.0%
same,Average ICA (10^6 cells * days/mL) ± SD,[1]; CS 50 μM,41.6 ± 0.9 10^6 cells * days/mL
same,Average Specific Productivity (pg/cell/day) ± SD,[1]; CS 50 μM,10.18 ± 0.45 pg/cell/day
same,Average TRU-016 Produced as a % of Control ± SD,[1]; CS 50 μM,97.5 ± 6.4%
same,Average TRU-016 Produced (μg/mL) ± SD,[1]; CS 50 μM,422.84 ± 27.8 µg/mL
same,Viability at Harvest (%),[1]; CS 50 μM,61.3%
same,Average ICA (10^6 cells * days/mL) ± SD,[1]; CS 100 μM,39.0 ± 0.4 10^6 cells * days/mL
same,Average Specific Productivity (pg/cell/day) ± SD,[1]; CS 100 μM,10.48 ± 0.07 pg/cell/day
same,Average TRU-016 Produced as a % of Control ± SD,[1]; CS 100 μM,94.3 ± 1.6%
same,Average TRU-016 Produced (μg/mL) ± SD,[1]; CS 100 μM,408.60 ± 6.9 µg/mL
same,Viability at Harvest (%),[1]; CS 100 μM,61.2% and 55.1%
same,Average ICA (10^6 cells * days/mL) ± SD,[1]; CS 200 μM,40.1 ± 2.3 10^6 cells * days/mL
same,Average Specific Productivity (pg/cell/day) ± SD,[1]; CS 200 μM,10.04 ± 0.69 pg/cell/day
same,Average TRU-016 Produced as a % of Control ± SD,[1]; CS 200 μM,92.7 ± 1.2%
same,Average TRU-016 Produced (μg/mL) ± SD,[1]; CS 200 μM,401.93 ± 5.0 µg/mL
same,Viability at Harvest (%),[1]; CS 200 μM,61.8% and 56.4%
same,Average ICA (10^6 cells * days/mL) ± SD,[1]; CS 400 μM,37.6 ± 0.3 10^6 cells * days/mL
same,Average Specific Productivity (pg/cell/day) ± SD,[1]; CS 400 μM,10.68 ± 0.28 pg/cell/day
same,Average TRU-016 Produced as a % of Control ± SD,[1]; CS 400 μM,92.6 ± 3.1%
same,Average TRU-016 Produced (μg/mL) ± SD,[1]; CS 400 μM,401.22 ± 13.3 µg/mL
same,Viability at Harvest (%),[1]; CS 400 μM,56.1% and 62.4%
same,Average ICA (10^6 cells * days/mL) ± SD,[1]; CS 800 μM,37.6 ± 1.0 10^6 cells * days/mL
same,Average Specific Productivity (pg/cell/day) ± SD,[1]; CS 800 μM,10.68 ± 0.40 pg/cell/day
same,Average TRU-016 Produced as a % of Control ± SD,[1]; CS 800 μM,92.5 ± 1.0%
same,Average TRU-016 Produced (μg/mL) ± SD,[1]; CS 800 μM,401.14 ± 4.1 µg/mL
same,Viability at Harvest (%),[1]; CS 800 μM,58.1% and 59.7%
same,average specific productivity of the cells,[1]; CS 25-800 μM,no significant effect
same,overall cell viability or growth (integral cell area),[1]; CS 25-800 μM,did not appear to significantly affect
same,decrease in production of TRU-016 relative to control,"[1]; CS 25-800 μM, even at the highest concentration of 800 μM",≤ 7.5%
